Common to all, as to assay type: cell-based
For assay [1], the system named is Acinetobacter spp. isolates (n = 104). The assay is described as follows: Broth microdilution MIC, clinical isolate panel. As to conditions: Acinetobacter spp. (n = 104). (In general: Dilution methods test growth across graded concentrations, often in twofold steps.)
In assay [2] the test system is Escherichia coli isolates (n = 101). The assay is described as follows: Broth microdilution MIC, clinical isolate panel. As to conditions: Escherichia coli (n = 101).
In assay [3] the test system is Klebsiella pneumoniae isolates (n = 101). The assay is described as follows: Broth microdilution MIC, clinical isolate panel. As to conditions: Klebsiella pneumoniae (n = 101).
For assay [4], the system named is Staphylococcus aureus isolates (n = 104). The assay is described as follows: Broth microdilution MIC, clinical isolate panel. As to conditions: Staphylococcus aureus (n = 104), all methicillin-resistant.
For assay [5], the system named is Escherichia coli ATCC 25922 (QC). The assay is described as follows: Broth microdilution MIC (Table 2). As to conditions: ATCC25922.
In assay [6] the test system is Enterococcus faecalis ATCC 700802 (V583 VRE). The assay is described as follows: Broth microdilution MIC (Table 2). The settings on record: read-out: MIC.
Assay [7] deals with Klebsiella pneumoniae ATCC BAA-1705 (KPC). The assay is described as follows: Broth microdilution MIC (Table 2). As to conditions: ATCCBAA1705.
Assay [8] deals with Acinetobacter baumannii ATCC 19606 (non-MDR). The assay is described as follows: Broth microdilution MIC (Table 2). As to conditions: ATCC19606, read-out: MIC.
The test system of assay [9] is Enterococcus faecium ATCC 51559 (VRE). The assay is described as follows: Broth microdilution MIC (Table 2). The settings on record: read-out: MIC.
Assay [10] has as its system Streptococcus agalactiae ATCC 13813. The assay is described as follows: Broth microdilution MIC (Table 2). As to conditions: ATCC13813, read-out: MIC.
The subject of assay [11] is Staphylococcus aureus ATCC 29213 (MSSA; QC). The assay is described as follows: Broth microdilution MIC (Table 2). As to conditions: read-out: MIC.

One molecule from patent publication US20200071361A1, “ENGINEERED ANTIMICROBIAL AMPHIPHILIC PEPTIDES AND METHODS OF USE” (priority 2017, published 2020) can be followed below.

≈ marks a conversion by molar mass, not a printed value.

One may read the MIC50 as the lowest concentration that inhibits either 50% of growth or 50% of the strains tested, depending on the study. A higher MIC50 goes with weaker potency. As a reminder, the MIC is the least concentration at which growth counts as inhibited.

Turning to `C[C@H]1COc2c(N3CCN(C)CC3)c(F)cc3c(=O)c(C(=O)O)cn1c23` [Levofloxacin], the MIC50 in assay [1] amounted to 8 µg/mL (≈ 22.1 µM); in [2], 4 µg/mL (≈ 11.1 µM); in assay [4], 8 µg/mL (≈ 22.1 µM). Also, the results for the “% R (percent of isolates resistant, clinical breakpoints)” value in assay [2], in assay [3] and in assay [4] were approximately 50%, “over 60%” and “Over 80%”, respectively. Further, the MIC in assay [5] is 0.015 µg/mL (≈ 0.0415 µM); in assay [6], 0.5 µg/mL (≈ 1.38 µM); in assay [7], 64 µg/mL (≈ 177 µM); in assay [8], 0.25 µg/mL (≈ 0.692 µM); in assay [9] it was 16 µg/mL (≈ 44.3 µM); in [10], 0.5 µg/mL (≈ 1.38 µM). Further, the MIC in assay [11] is 0.25 µg/mL (≈ 0.692 µM).
